Where a name gives a salt, the structure may show the parent alone. Read-outs that look alike come from different tables or passages of the source. Bounds are passed on as bounds.

Data set [1] relates to bovine brain tubulin. Briefly: inhibition of tubulin assembly. In kind it is biochemical. The conditions noted are these: bovine tubulin.
Data set [2] relates to βIII-tubulin overexpressing HeLa cell line. The experiment in a line: HeLa cytotoxicity, βIII-tubulin overexpressing. The settings on record: for IC50: βIII-tubulin overexpressing HeLa. In kind it is cell-based.
In data set [3] the test system is wild type HeLa cells. The experiment in a line: HeLa cytotoxicity, wild type. It is filed as cell-based.
For data set [4], the system named is A431 cells. Briefly: A431 cytotoxicity. In kind it is cell-based. The conditions noted are these: Homo sapiens, A-431.
In data set [5] the target is PDGFRβ (Homo sapiens, UniProt P09619). Briefly: PDGFRβ kinase inhibition, whole-cell assay. It is filed as cell-based. The settings on record: for IC50: whole-cell assay, read-out: kinase inhibition IC50 [whole-cell assays] PDGFRβ.
PDGFRβ, sequence (P09619 33-1106, species assumed): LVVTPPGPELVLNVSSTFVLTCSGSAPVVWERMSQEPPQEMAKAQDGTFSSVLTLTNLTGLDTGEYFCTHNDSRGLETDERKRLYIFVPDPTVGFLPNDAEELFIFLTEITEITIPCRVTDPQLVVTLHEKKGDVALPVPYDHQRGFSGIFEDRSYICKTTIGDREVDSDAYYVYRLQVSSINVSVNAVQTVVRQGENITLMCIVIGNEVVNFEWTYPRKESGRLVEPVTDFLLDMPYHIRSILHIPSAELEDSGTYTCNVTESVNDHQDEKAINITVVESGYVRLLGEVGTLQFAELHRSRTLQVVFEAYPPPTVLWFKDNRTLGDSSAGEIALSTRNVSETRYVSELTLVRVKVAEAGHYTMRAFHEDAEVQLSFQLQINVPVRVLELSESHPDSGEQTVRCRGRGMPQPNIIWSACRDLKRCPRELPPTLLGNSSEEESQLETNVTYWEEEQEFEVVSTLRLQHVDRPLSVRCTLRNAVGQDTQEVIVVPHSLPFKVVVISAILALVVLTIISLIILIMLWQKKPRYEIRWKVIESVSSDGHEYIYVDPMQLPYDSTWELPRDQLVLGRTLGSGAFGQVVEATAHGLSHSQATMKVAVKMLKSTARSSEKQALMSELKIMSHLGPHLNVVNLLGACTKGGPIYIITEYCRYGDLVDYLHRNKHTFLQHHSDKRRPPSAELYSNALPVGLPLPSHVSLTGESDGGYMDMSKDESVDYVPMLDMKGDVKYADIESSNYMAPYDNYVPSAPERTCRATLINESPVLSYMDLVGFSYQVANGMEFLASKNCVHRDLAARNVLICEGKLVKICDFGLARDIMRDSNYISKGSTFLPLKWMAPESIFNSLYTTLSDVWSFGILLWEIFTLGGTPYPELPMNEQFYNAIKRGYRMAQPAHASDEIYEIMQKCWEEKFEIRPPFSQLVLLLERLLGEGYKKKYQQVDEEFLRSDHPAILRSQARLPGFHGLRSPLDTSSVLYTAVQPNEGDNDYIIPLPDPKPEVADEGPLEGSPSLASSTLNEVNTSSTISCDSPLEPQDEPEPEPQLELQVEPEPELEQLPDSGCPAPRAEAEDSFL
Data set [6] concerns the target EGFR (Homo sapiens, UniProt P00533). The experiment in a line: EGFR kinase inhibition, whole-cell assay. In kind it is cell-based. The conditions noted are these: read-out: kinase inhibition IC50 [whole-cell assays] EGFR.
In data set [7] the target is VEGFR2 (Homo sapiens, UniProt P35968). The experiment in a line: VEGFR2 kinase inhibition, whole-cell assay. It is filed as cell-based. The conditions noted are these: read-out: kinase inhibition IC50 [whole-cell assays] VEGFR2.
VEGFR2, sequence (P35968 20-1356, species assumed): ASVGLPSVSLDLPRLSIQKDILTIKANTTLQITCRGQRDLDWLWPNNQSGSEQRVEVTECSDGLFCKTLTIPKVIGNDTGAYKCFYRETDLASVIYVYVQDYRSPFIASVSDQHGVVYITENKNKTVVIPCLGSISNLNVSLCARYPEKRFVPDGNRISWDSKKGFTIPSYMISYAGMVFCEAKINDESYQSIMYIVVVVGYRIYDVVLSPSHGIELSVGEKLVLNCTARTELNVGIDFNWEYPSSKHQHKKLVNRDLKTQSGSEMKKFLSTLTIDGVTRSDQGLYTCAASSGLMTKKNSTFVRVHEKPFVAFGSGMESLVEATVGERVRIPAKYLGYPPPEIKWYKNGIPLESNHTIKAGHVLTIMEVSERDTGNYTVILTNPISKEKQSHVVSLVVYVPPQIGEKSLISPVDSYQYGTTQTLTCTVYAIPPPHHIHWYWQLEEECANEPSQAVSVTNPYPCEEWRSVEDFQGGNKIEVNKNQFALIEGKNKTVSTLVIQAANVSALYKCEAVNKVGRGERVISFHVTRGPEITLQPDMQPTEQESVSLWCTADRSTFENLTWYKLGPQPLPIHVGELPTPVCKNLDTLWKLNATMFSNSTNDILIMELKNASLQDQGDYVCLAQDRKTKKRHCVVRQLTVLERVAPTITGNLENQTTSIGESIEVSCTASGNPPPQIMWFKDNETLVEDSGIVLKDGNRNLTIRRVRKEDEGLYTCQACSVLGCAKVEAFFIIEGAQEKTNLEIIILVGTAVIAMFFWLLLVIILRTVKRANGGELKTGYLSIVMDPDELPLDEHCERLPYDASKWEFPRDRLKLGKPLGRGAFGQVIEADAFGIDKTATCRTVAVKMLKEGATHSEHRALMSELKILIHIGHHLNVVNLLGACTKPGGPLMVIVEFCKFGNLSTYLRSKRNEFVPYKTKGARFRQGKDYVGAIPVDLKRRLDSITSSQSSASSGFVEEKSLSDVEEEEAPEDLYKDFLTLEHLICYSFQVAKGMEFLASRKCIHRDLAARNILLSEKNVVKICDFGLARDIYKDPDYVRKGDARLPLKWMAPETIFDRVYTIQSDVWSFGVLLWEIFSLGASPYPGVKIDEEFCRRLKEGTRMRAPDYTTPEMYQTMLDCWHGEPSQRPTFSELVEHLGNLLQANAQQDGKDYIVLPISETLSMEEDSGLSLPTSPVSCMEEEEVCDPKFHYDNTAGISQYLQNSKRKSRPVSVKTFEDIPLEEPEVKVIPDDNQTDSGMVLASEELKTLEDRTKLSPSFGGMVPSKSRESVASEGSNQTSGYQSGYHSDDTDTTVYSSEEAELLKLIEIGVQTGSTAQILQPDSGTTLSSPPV
Data set [8] concerns 4T1-Luc2GFP triple negative mouse breast cancer cells. It is filed as in vivo. The settings on record: for animal weight: mouse, in vivo. As for the experimental part: (§1) BALB/c mice were implanted with 7.5 k 4T1-Luc2GFP triple negative mouse breast cancer cells orthotopically into mammary fat pad 4. 7 days after implantation, tumors are visible in over 90% of animals. At day 8 and continuing twice weekly until the experiment end, the MTD of compound 4.HCl (i.e. the hydrochloride salt of compound 4 shown in FIG. 1), determined to be 40 mg/kg, was given IP to tumor-bearing mice; […]; Both drugs were in solvent (5% solutol-15, 5% PharmaSolve in normal saline) and a solvent control group was included in addition to sham injected (untreated) group. Primary tumor volume and animal weights was assessed by calipers throughout the experiment.
On day 40, all animals were injected IV with fluorescently labeled dextran as a marker of vasculature. Tumors were excised and weighed; lungs were excised and evaluated for metastases. […]; large micro metastases (>10 cells with no vasculature) and macrometastases (>10 cells with apparent vasculature) were counted. […]

A short description of data set [9]: MTD in mice. The conditions noted are these: BALB/c, mouse, in vivo, ip. As for the experimental part:
as §1

EGFR, sequence (P00533 25-1210, species assumed): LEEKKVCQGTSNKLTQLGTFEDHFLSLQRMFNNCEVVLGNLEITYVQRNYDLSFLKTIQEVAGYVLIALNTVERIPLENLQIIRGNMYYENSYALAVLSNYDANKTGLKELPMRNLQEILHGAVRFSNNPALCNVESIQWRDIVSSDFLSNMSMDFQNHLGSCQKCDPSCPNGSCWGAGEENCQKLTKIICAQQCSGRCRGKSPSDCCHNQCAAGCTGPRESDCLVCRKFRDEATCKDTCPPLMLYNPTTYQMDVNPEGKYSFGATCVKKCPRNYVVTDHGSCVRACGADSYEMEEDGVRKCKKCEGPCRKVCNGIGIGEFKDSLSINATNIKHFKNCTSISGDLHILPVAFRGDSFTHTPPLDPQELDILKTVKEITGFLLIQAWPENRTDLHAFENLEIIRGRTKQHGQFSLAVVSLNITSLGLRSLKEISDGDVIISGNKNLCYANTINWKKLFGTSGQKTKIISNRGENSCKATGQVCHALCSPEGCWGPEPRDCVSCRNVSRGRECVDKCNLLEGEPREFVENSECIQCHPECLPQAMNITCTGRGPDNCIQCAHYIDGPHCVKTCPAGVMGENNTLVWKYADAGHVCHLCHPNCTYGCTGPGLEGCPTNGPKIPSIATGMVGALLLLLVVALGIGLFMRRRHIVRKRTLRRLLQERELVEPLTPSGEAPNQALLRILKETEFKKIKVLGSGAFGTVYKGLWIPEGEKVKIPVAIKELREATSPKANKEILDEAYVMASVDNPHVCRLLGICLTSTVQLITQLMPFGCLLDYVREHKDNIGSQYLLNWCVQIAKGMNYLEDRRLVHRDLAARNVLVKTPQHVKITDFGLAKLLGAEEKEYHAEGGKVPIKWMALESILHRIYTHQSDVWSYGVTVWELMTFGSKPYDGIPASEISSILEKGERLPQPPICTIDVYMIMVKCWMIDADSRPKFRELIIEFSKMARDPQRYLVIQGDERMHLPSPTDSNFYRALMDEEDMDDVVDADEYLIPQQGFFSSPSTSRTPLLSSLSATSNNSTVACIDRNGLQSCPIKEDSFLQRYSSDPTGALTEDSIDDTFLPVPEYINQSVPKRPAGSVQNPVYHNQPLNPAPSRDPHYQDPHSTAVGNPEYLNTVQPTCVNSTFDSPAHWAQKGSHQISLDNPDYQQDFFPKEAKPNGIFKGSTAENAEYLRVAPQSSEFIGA

Take `COc1ccc(Nc2nc(C)nc3c(Cc4ccccc4)cn(C)c23)cc1` [Compound 3, 7-Benzyl-N-(4-methoxyphenyl)-2,5-dimethyl-5H-pyrrolo[3,2-d]pyrimidin-4-amine]: the IC50 was over 20000 nM in data set [1]; 5000 nM in [2] (Homo sapiens); 5000 nM in data set [3] (Homo sapiens); 2.3 ± 0.3 nM in data set [4]; 7.2 ± 0.9 nM in [5]; 2.6 nM in data set [6]. Further, the IC50 in data set [7] amounted to 26.7 nM. In addition, in data set [5], the “potency against PDGFRβ, in words” value is on record as “potencies comparable with DMBI”.
The molecule `COc1ccc2c(c1)CCCN2c1nc(C)nc2c(Cc3ccccc3)cn(C)c12` [Compound 5, 1-(7-Benzyl-2,5-dimethyl-5H-pyrrolo[3,2-d]pyrimidin-4-yl)-6-methoxy-1,2,3,4-tetrahydroquinoline] registered a melting point of 130 to 132 °C. Also, the IC50 in [3] (Homo sapiens) was 60 nM. In data set [5], the IC50 was 30.2 nM. The IC50 in [6] is 4.9 ± 0.6 nM. For the same molecule, the half-inhibitory concentration (IC50) in [7] is 32.9 nM.
Regarding `COc1cccc2c1C(=O)c1c(O)c3c(c(O)c1C2=O)C[C@@](O)(C(=O)CO)C[C@@H]3O[C@H]1C[C@H](N)[C@H](O)[C@H](C)O1` [doxorubicin, reference compound], the animal weight entry in [8] was “began to result in weight loss in a few animals”. For the same molecule, 1.35 nM corresponded to half-maximal inhibition in data set [4] (IC50).
For the molecule `CC(=O)O[C@H]1C(=O)[C@@]2(C)[C@H]([C@H](OC(=O)c3ccccc3)[C@]3(O)C[C@H](OC(=O)[C@H](O)[C@@H](NC(=O)c4ccccc4)c4ccccc4)C(C)=C1C3(C)C)[C@]1(OC(C)=O)CO[C@@H]1C[C@@H]2O` [paclitaxel], the “fold less potent in βIII-tubulin overexpressing cell line than in wild type HeLa cells” value in data set [2] is recorded as 3 fold. For the same molecule, the IC50 in data set [2] (Homo sapiens) came to 16.1 ± 1 nM; in data set [3] (Homo sapiens), 5.3 ± 2 nM.
Regarding `COc1ccc(N(C)c2nc(C)nc3c(Cc4ccccc4)cn(C)c23)cc1` [Compound 4.HCl, 7-Benzyl-N-(4-methoxyphenyl)-N,2,5-trimethyl-5H-pyrrolo[3,2-d]pyrimidin-4-amine], in [8] (40 mg/kg IP twice weekly from day 8, vs carrier or vs doxorubicin, FIG. 2), the “4T1 primary tumor growth (volume)” value is listed as “significantly reduced 4T1 primary growth”. Further, the “number of lung small micro metastases” value in [8] (day 40, 1-9 cells without any vasculature, FIG. 5) is “reduced the number of lung small micro metastases”. For the same molecule, the lung macrometastases result in data set [8] (day 40, >10 cells with apparent vasculature, FIG. 5) is listed as “none had any lung macrometastases”. Further, the “tumor weight at the end of the experiment” value in data set [8] (day 40, FIG. 4) was “reduced tumor weight”. For the same molecule, the animal weight entry in [8] is reported as “no change in animal weight”. Also, in [9], the MTD was found to be 40 mg/kg.
The molecule `COc1ccc(Nc2nc(C)nc3c(Cc4ccccc4)cn(C)c23)cc1` (as salt: salt) [Compound 3, 7-Benzyl-N-(4-methoxyphenyl)-2,5-dimethyl-5H-pyrrolo[3,2-d]pyrimidin-4-amine] came in with a melting point of 291 to 292 °C.
For the molecule `CC(=O)O[C@@]12CO[C@@H]1C[C@H](O)[C@@]1(C)C(=O)[C@H](O)C3=C(C)[C@@H](OC(=O)[C@H](O)[C@@H](NC(=O)OC(C)(C)C)c4ccccc4)C[C@@](O)([C@@H](OC(=O)c4ccccc4)[C@H]21)C3(C)C` [docetaxel], the “fold less potent in βIII-tubulin overexpressing cell line than in wild type HeLa cells” value in data set [2] was 3 fold. The IC50 in data set [2] (Homo sapiens) was 13 ± 4 nM; in [3] (Homo sapiens) it was 4 ± 2 nM.
As to `COc1ccc(/C=C\c2cc(OC)c(OC)c(OC)c2)cc1O` [combretastatin A-4, reference compound], the IC50 in data set [2] was 2.5 ± 0.7 nM; in data set [3], 1.8 nM.

Broadly, the IC50 is the concentration that gives 50% inhibition. For orientation: melting point means the temperature of the solid-liquid transition.

Source of the values: patent publication US10906910B2, “Substituted bicyclic pyrimidine compounds with tubulin and multiple receptor inhibition” (Duquesne University of the Holy Spirit, priority 2014, dated 2021).
